Data published in patent US7371776B2, “Methods and compositions for treating cancer” (Mars, Incorporated, priority 2004, dated 2008).

System: normal mortal HMECs
Assay: Crystal violet cellular proliferation assay
Format: cell-based, human
Settings: 100 μg/mL
Source text: Immortalized human mammary epithelial cells (HMECs), MCF-10A, 184A1N4 and 184B5, normal, finite-life-span HMECs (1001-8, CC-2551) at passage 8, originally derived from mammoplasty breast tissues, were purchased from Clonetics-BioWhittaker, Inc. (Waskersville, Md.). Cell lines generated by introduction of c-MYC, ErbB2 and RAS oncogene into MCF-10A cells (MCF-10A-ErbB2/Ras cells and MCF-10A-c-Myc) were also used.
Normal mortal HMECs were maintained according to the supplier's instructions in mammary epithelial cell growth medium (CC-3152) (Clonetics) supplemented with 52 μg of bovine pituitary extract per ml, 10 ng/mL of human EGF, 5 μg/mL of insulin, and 0.5 μg/mL of hydrocortisone and were grown in 37° C. incubators with low (0.1 to 0.2%) CO2 settings.
One×10^3 cells per well were seeded in 96 well dishes (Coming Costar, Cambridge, Mass.). Primary cultures of HMECs, A1N4 and 184B5 cells were evaluated at two different cell densities (seeded at 1×10^3 and 2×10^3 per well). […]
Cells were treated for 1, 2, 3, 6, 8 and 10 days, but in some cases, the samples were collected at days 2, 3, 4, 7 and 10 post-treatment. […] The optical density (OD) of samples was read at 550 nm on an Ultramark Microplate Imagining System (BioRad, Philadelphia, Pa.). […] Statistical significance was determined using the t test analysis.

Oc1cc(O)c2c(c1)O[C@H](c1ccc(O)c(O)c1)[C@H](O)[C@H]2c1c(O)cc(O)c2c1O[C@H](c1ccc(O)c(O)c1)[C@H](O)[C@H]2c1c(O)cc(O)c2c1O[C@H](c1ccc(O)c(O)c1)[C@H](O)[C@H]2c1c(O)cc(O)c2c1O[C@H](c1ccc(O)c(O)c1)[C@H](O)[C@H]2c1c(O)cc(O)c2c1O[C@H](c1ccc(O)c(O)c1)[C@H](O)C2 [pentamer, pentameric procyanidin]
growth inhibited, in comparison to DMSO-treated controls: 1.4 fold
